Results: paper PMC6264117, “Label-Free Time-Gated Luminescent Detection Method for the Nucleotides with Varying Phosphate Content” (Sensors (Basel, Switzerland), 2018)

Target: T1, K-Ras (Homo sapiens, UniProt P01116)
T1 construct: gene KRAS; res; 2-188; with SOS^cat (res. 564-1049); p120GAP (res. 714-1047) in the cycling assay
Experiment: Label-free Tb(III) luminescence GTPase cycling assay (Probe […]); confirmed by QRET and by SOS^cat nucleotide exchange assays (IC50 […])
Assay type: biochemical

T1 sequence (Q07889 564-1049): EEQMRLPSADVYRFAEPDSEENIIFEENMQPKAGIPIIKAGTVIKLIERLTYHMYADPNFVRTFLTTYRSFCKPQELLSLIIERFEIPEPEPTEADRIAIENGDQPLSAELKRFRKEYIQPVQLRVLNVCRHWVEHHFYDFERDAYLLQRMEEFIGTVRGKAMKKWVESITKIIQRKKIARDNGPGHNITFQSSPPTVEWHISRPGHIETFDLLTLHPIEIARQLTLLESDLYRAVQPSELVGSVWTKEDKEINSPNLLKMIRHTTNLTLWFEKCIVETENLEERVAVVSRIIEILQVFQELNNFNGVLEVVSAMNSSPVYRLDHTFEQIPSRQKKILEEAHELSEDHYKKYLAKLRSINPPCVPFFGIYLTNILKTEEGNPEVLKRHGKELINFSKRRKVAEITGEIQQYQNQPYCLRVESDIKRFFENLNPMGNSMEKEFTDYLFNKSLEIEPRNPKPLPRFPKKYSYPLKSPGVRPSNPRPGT
T1 sequence (P20936 714-1047, further chain): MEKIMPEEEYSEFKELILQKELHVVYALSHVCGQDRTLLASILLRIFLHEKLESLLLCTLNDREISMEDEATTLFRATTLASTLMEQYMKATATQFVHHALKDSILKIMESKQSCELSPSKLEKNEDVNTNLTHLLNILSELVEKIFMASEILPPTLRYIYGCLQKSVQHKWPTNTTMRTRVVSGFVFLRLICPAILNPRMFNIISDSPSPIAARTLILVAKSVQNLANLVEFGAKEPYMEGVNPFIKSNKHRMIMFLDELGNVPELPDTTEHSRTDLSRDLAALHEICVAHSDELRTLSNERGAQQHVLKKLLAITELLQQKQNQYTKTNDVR
T1 sequence (P01116 2-188): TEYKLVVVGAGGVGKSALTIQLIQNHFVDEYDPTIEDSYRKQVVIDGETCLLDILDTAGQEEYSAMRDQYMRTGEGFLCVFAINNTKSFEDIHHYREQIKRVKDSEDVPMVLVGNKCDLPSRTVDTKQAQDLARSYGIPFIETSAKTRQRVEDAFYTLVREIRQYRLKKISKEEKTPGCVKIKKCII

`Cc1[nH]c2cc(Cl)cc(Cl)c2c1CCN` [DCAI, 2-(4,6-dichloro-2-methyl-1h-indol-3-yl)ethanamine] showed an IC50 of 158 ± 13 µM.
